Compound: N[C@@H]1CCCN(c2c(/C=C3\SC(=O)NC3=O)cccc2-c2ccccc2)C1 [AZD1208]
Assay: relative viability (nuclei count vs DMSO), 5 days (fraction); higher = more cells survive
Settings: 0.08 µM
Summary of the method: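 A plate was accepted only when its control CV was below 25% and the cells had doubled at least once. Viability is defined from nuclear counts as treated wells divided by vehicle wells, with the median taken across plates. That median covers lung cancer cell lines grown in 1536-well plates, dosed by pinning at five √10-spaced library-drug concentrations, and counted in MetaXpress from 4× Hoechst images after 5 days.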

| Cell Line | relative viability |
| --- | --- |
| LU99A | 0.974 |
| BEN | 0.954 |
| HARA | 0.935 |
| HCC-78 | 1.02 |
| LCLC-97TM1 | 0.95 |
| NCI-H2023 | 0.863 |
| A-427 | 1.1 |
| NCI-H460 | 0.997 |
| NCI-H727 | 0.891 |
| NCI-H1734 | 0.887 |
| NCI-H520 | 0.938 |
| NCI-H2405 | 1.01 |
| SW 1573 | 0.822 |
| NCI-H1395 | 1.15 |
| 201T | 1.05 |
| NCI-H1915 | 0.995 |
| HCC-827 | 1.08 |
| LXF-289 | 1.05 |

Same assay, conditions: 0.253 µM

| Cell Line | relative viability |
| --- | --- |
| Calu-6 | 1.1 |
| HCC-366 | 0.996 |
| NCI-H1666 | 1.06 |
| NCI-H647 | 1.04 |
| LK-2 | 0.718 |
| NCI-H2126 | 0.965 |
| SK-MES-1 | 1.01 |
| H3255 | 1.02 |
| COR-L23 | 1.12 |
| COR-L 105 | 0.909 |
| IA-LM | 0.983 |
| LOU-NH91 | 0.889 |
| NCI-H2170 | 0.994 |
| NCI-H3122 | 0.996 |
| HOP-62 | 1.07 |
| HCC-44 | 0.933 |
| A549 | 0.952 |
| LU99A | 0.963 |

| Cell Line | relative viability |
| --- | --- |
| BEN | 0.84 |
| HARA | 1.17 |
| HCC-78 | 1.02 |
| LCLC-97TM1 | 0.885 |
| NCI-H2023 | 1.01 |
| A-427 | 0.972 |
| NCI-H460 | 1.1 |
| NCI-H727 | 0.886 |
| NCI-H1734 | 0.989 |
| NCI-H520 | 1.17 |
| NCI-H2405 | 0.938 |
| SW 1573 | 0.899 |
| NCI-H1395 | 1 |
| 201T | 0.99 |
| NCI-H1915 | 1.06 |
| HCC-827 | 1.08 |
| LXF-289 | 1.06 |

Same assay, conditions: 0.8 µM

| Cell Line | relative viability |
| --- | --- |
| Calu-6 | 0.968 |
| HCC-366 | 1.03 |
| NCI-H1666 | 0.881 |
| NCI-H647 | 0.891 |
| LK-2 | 0.63 |
| NCI-H2126 | 0.942 |
| SK-MES-1 | 0.964 |
| H3255 | 0.938 |
| COR-L23 | 0.965 |
| COR-L 105 | 0.929 |
| IA-LM | 0.855 |
| LOU-NH91 | 0.954 |
| NCI-H2170 | 0.945 |
| NCI-H3122 | 0.932 |
| HOP-62 | 0.941 |
| HCC-44 | 1.01 |
| A549 | 0.868 |
| LU99A | 0.921 |

| Cell Line | relative viability |
| --- | --- |
| BEN | 0.629 |
| HARA | 0.974 |
| HCC-78 | 0.963 |
| LCLC-97TM1 | 0.813 |
| NCI-H2023 | 0.86 |
| A-427 | 0.895 |
| NCI-H460 | 0.962 |
| NCI-H727 | 0.777 |
| NCI-H1734 | 0.874 |
| NCI-H520 | 0.943 |
| NCI-H2405 | 0.942 |
| SW 1573 | 0.799 |
| NCI-H1395 | 0.93 |
| 201T | 0.952 |
| NCI-H1915 | 0.967 |
| HCC-827 | 1.05 |
| LXF-289 | 1.01 |

Same assay, conditions: 2.53 µM

| Cell Line | relative viability |
| --- | --- |
| Calu-6 | 1.04 |
| HCC-366 | 1.01 |
| NCI-H1666 | 0.942 |
| NCI-H647 | 0.892 |
| LK-2 | 0.493 |
| NCI-H2126 | 0.866 |
| SK-MES-1 | 0.943 |
| H3255 | 0.934 |
| COR-L23 | 0.99 |
| COR-L 105 | 0.712 |
| IA-LM | 0.875 |
| LOU-NH91 | 0.953 |
| NCI-H2170 | 0.964 |
| NCI-H3122 | 1.04 |
| HOP-62 | 1.02 |
| HCC-44 | 1.09 |
| A549 | 0.934 |
| LU99A | 0.878 |

| Cell Line | relative viability |
| --- | --- |
| BEN | 0.709 |
| HARA | 0.931 |
| HCC-78 | 1.02 |
| LCLC-97TM1 | 0.852 |
| NCI-H2023 | 0.867 |
| A-427 | 0.962 |
| NCI-H460 | 0.998 |
| NCI-H727 | 0.755 |
| NCI-H1734 | 0.841 |
| NCI-H520 | 0.908 |
| NCI-H2405 | 0.964 |
| SW 1573 | 0.807 |
| NCI-H1395 | 0.913 |
| 201T | 0.933 |
| NCI-H1915 | 0.875 |
| HCC-827 | 1.08 |
| LXF-289 | 1.03 |

Same assay, conditions: 8 µM

| Cell Line | relative viability |
| --- | --- |
| Calu-6 | 0.989 |
| HCC-366 | 0.993 |
| NCI-H1666 | 0.959 |
| NCI-H647 | 0.788 |
| LK-2 | 0.42 |
| NCI-H2126 | 0.79 |
| SK-MES-1 | 0.866 |
| H3255 | 0.947 |
| COR-L23 | 1 |
| COR-L 105 | 0.821 |
| IA-LM | 0.989 |
| LOU-NH91 | 0.892 |
| NCI-H2170 | 0.64 |
| NCI-H3122 | 0.981 |
| HOP-62 | 0.944 |
| HCC-44 | 1.05 |
| A549 | 0.786 |
| LU99A | 0.807 |

| Cell Line | relative viability |
| --- | --- |
| BEN | 0.537 |
| HARA | 0.997 |
| HCC-78 | 1.06 |
| LCLC-97TM1 | 0.631 |
| NCI-H2023 | 0.769 |
| A-427 | 0.747 |
| NCI-H460 | 1.03 |
| NCI-H727 | 0.827 |
| NCI-H1734 | 0.647 |
| NCI-H520 | 0.754 |
| NCI-H2405 | 0.947 |
| SW 1573 | 0.696 |
| NCI-H1395 | 0.697 |
| 201T | 0.939 |
| NCI-H1915 | 0.979 |
| HCC-827 | 1.01 |
| LXF-289 | 1.12 |
